For 6 compounds, IC50 results are on record in patent US9718780B2, “Substituted pyridines as sodium channel blockers” (priority 2012, dated 2017).

The test deals with human Nav1.7 (Homo sapiens (Human), UniProt Q15858). Put plainly: FLIPR or FLIPR TETRA sodium dye assay with KCl and test article pre-incubation. In kind it is cell-based. The following applies: read-out: Nav1.7 Activity (μM) FLIPR assay IC50 (μM) ± SEM.
human Nav1.7, sequence (Q15858 with tags, fused parts or gaps limits assumed): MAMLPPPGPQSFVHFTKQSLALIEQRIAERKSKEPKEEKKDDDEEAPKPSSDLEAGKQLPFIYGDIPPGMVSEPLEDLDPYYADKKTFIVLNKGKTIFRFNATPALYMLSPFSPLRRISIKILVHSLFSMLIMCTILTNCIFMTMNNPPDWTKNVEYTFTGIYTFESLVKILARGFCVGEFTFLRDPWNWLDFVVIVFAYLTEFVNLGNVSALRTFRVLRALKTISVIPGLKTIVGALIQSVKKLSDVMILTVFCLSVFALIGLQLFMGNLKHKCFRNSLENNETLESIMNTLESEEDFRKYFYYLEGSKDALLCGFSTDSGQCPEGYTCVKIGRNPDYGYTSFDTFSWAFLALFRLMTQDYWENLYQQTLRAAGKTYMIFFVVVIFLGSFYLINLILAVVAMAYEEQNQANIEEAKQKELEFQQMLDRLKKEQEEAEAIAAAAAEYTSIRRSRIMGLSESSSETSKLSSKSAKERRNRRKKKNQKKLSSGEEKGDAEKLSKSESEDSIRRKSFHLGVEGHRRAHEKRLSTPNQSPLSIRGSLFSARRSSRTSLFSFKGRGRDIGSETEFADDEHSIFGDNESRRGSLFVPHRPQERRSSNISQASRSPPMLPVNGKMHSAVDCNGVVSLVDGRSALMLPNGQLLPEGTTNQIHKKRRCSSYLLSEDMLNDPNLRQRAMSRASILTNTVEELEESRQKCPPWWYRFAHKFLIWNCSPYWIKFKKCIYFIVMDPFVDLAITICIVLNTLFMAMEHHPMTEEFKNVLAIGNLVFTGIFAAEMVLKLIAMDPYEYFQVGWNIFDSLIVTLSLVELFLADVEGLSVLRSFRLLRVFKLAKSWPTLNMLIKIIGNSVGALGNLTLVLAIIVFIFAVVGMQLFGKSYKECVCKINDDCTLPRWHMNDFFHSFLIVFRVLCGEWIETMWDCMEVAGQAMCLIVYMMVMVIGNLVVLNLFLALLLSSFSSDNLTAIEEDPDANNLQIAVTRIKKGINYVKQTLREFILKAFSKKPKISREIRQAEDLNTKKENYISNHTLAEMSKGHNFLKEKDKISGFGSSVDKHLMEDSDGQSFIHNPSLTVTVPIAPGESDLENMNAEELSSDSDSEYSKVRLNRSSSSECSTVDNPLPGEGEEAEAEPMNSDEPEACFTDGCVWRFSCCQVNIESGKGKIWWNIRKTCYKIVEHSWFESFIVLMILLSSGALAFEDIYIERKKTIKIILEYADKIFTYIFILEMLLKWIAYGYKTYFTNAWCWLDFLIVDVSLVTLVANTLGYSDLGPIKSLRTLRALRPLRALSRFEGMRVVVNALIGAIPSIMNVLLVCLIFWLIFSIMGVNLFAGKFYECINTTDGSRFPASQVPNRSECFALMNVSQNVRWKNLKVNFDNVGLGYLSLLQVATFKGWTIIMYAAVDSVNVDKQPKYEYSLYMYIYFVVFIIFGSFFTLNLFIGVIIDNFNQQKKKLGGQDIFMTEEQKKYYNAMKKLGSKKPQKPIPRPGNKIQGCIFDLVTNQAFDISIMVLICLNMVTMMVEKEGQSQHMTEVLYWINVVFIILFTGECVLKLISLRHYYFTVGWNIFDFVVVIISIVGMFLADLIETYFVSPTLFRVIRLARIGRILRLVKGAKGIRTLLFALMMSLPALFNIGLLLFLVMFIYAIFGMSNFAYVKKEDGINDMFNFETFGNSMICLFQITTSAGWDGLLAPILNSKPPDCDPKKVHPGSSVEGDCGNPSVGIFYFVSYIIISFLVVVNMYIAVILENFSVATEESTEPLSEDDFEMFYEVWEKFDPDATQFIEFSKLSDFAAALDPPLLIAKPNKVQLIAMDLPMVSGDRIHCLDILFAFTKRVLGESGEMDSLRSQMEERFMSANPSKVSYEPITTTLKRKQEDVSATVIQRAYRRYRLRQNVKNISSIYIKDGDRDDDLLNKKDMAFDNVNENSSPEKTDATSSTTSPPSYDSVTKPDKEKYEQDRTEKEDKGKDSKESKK
As for `N#Cc1cc(Oc2ccc(-c3cccc(C(=O)[C@H](O)CO)n3)cc2)ccc1C(F)(F)F` [Compound 3, (R)-5-(4-(6-(2,3-dihydroxypropanoyl)pyridin-2-yl)phenoxy)-2-(trifluoromethyl)benzonitrile], the concentration for half-maximal inhibition (IC50) (usually the midpoint of a concentration-inhibition curve) turned out to be 0.402 ± 0.096 µM.

In the case of `N#Cc1cc(Oc2ccc(-c3cccc(C(O)C(N)=O)n3)cc2)ccc1C(F)(F)F` (stereo not drawn) [Compound 6, 2-(6-(4-(3-cyano-4-(trifluoromethyl)phenoxy)phenyl)pyridin-2-yl)-2-hydroxyacetamide], the IC50 is 0.722 ± 0.053 µM.

Turning to `O=C(c1cccc(-c2ccc(Oc3ccc(C(F)(F)F)cc3)cc2)n1)[C@H](O)CO` [Compound 4, (R)-2,3-dihydroxy-1-(6-(4-(4-(trifluoromethyl)phenoxy)phenyl)pyridin-2-yl)propan-1-one], the IC50 amounted to 0.136 ± 0.016 µM.

Regarding `O=C(c1cccc(-c2ccc(Oc3ccc(F)cc3)cc2)n1)[C@H](O)CO` [Compound 1, (R)-1-(6-(4-(4-fluorophenoxy)phenyl)pyridin-2-yl)-2,3-dihydroxypropan-1-one], the IC50 came out at 0.133 ± 0.005 µM.

Consider `N#Cc1ccc(Oc2ccc(-c3cccc(C(=O)[C@H](O)CO)n3)cc2)cc1` [Compound 5, (R)-4-(4-(6-(2,3-dihydroxypropanoyl)pyridin-2-yl)phenoxy)benzonitrile], for which the IC50 is 0.149 ± 0.023 µM.

On to `N#Cc1ccc(Oc2ccc(-c3cccc(C(=O)[C@H](O)CO)n3)cc2)cc1C(F)(F)F` [Compound 2, (R)-4-(4-(6-(2,3-dihydroxypropanoyl)pyridin-2-yl)phenoxy)-2-(trifluoromethyl)benzonitrile], for which the IC50 stood at 0.365 ± 0.065 µM.
